For 13 compounds, T/C results are on record in PubChem BioAssay AID248 (DTP/NCI, 2004).

The assay relates to L1210 leukemia ip in BDF1 mice, survival T/C. Description: NCI In Vivo Anticancer Drug Screen. Data for tumor model L1210 Leukemia (intraperitoneal) in B6D2F1 (BDF1) mice. As to conditions: endpoint: mean survival time, higher = longer survival. In a few lines: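 Survival endpoint. Drug-treated group vs vehicle group, expressed as T divided by C. Tumor passaged by transplantation.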

Where [1] appears, read: dose: 100.0 mg/kg/injection, schedule: Q01DX009 (ip), vehicle: Klucel (hydroxypropylcellulose) (HPC).
Setting [2] is: dose: 200.0 mg/kg/injection, schedule: Q01DX009 (ip), vehicle: Klucel (hydroxypropylcellulose) (HPC).
[3] abbreviates: dose: 100.0 mg/kg/injection, schedule: Q01DX009 (ip), vehicle: saline.

Several values for one entry are separate records, joined by “and”; a condition that tells them apart may be missing. Identical values can stand only once. Inconclusive results and toxic doses are left out.

`Nc1cc(Cl)nc(Cl)n1`: the T/C runs as follows: (dose: 29.0 mg/kg/injection, schedule: Q01DX Z (ip), vehicle: methylcellulose (MC)) 89 % of control; (dose: 45.0 mg/kg/injection, schedule: Q01DX Z (ip), vehicle: methylcellulose (MC)) 100 % of control; (dose: 67.0 mg/kg/injection, schedule: Q01DX Z (ip), vehicle: methylcellulose (MC)) 96 % of control; (dose: 100.0 mg/kg/injection, schedule: Q01DX Z (ip), vehicle: methylcellulose (MC)) 92 % of control.
As to `Cc1ccc(C(=O)C=O)c(C)c1`, the T/C under setting [1] is 96 % of control; the T/C under setting [2] was 105 % of control; the T/C (dose: 400.0 mg/kg/injection, schedule: Q01DX009 (ip), vehicle: Klucel (hydroxypropylcellulose) (HPC)) is 109 % of control.
Consider `O=C(COc1cccc(Cl)c1)NCc1cccc(NC(=O)c2cccc(S(=O)(=O)F)c2)c1`, for which the T/C is 97 % of control (dose: 100.0 mg/kg/injection, schedule: Q01DX001 (ip), vehicle: gum acacia); 93 % of control (dose: 200.0 mg/kg/injection, schedule: Q01DX001 (ip), vehicle: gum acacia); 98 % of control (dose: 400.0 mg/kg/injection, schedule: Q01DX001 (ip), vehicle: gum acacia).
As for `Nc1nc(CCl)nc(Nc2ccccc2)n1`, the T/C is 105 % of control under setting [1]; 104 % of control (dose: 100.0 mg/kg/injection, schedule: Q04DX003 (ip), vehicle: Klucel (hydroxypropylcellulose) (HPC)); 86 % of control under setting [2]; 98 % of control (dose: 200.0 mg/kg/injection, schedule: Q04DX003 (ip), vehicle: Klucel (hydroxypropylcellulose) (HPC)).
In the case of `CC(C)C1=CCC2C(=C1)CCC1C(C)(C(N)=O)CCCC21C` (stereo not given), the T/C (dose: 100.0 mg/kg/injection, schedule: Q01DX009 (ip), vehicle: saline with Tween-80) is 102 % of control; the T/C (dose: 200.0 mg/kg/injection, schedule: Q01DX009 (ip), vehicle: saline with Tween-80) was 92 % of control; the T/C (dose: 400.0 mg/kg/injection, schedule: Q01DX009 (ip), vehicle: saline with Tween-80) was 89 % of control.
For the compound `COc1ccc(C(=O)NO)cc1`, the T/C was 96 % of control (dose: 100.0 mg/kg/injection, schedule: Q01DX009 (ip), vehicle: carboxymethylcellulose (CMC)); 102 % of control (dose: 200.0 mg/kg/injection, schedule: Q01DX009 (ip), vehicle: carboxymethylcellulose (CMC)); 101 % of control (dose: 400.0 mg/kg/injection, schedule: Q01DX009 (ip), vehicle: carboxymethylcellulose (CMC)).
Regarding `O=COCC1CCC(NC(=O)N(CCCl)N=O)CC1` (stereo not given), the T/C (dose: 2.6 mg/kg/injection, schedule: Q01DX001 (ip), vehicle: Klucel (hydroxypropylcellulose) (HPC)) is 103 % of control; the T/C (dose: 4.0 mg/kg/injection, schedule: Q01DX001 (ip), vehicle: Klucel (hydroxypropylcellulose) (HPC)) was 111 % of control; the T/C (dose: 6.0 mg/kg/injection, schedule: Q01DX001 (ip), vehicle: Klucel (hydroxypropylcellulose) (HPC)) was 123 % of control; the T/C (dose: 9.0 mg/kg/injection, schedule: Q01DX001 (ip), vehicle: Klucel (hydroxypropylcellulose) (HPC)) was 227 % of control; the T/C (dose: 12.0 mg/kg/injection, schedule: Q01DX001 (ip), vehicle: Klucel (hydroxypropylcellulose) (HPC)) is 293 % of control and 319 % of control; the T/C (dose: 15.0 mg/kg/injection, schedule: Q01DX001 (ip), vehicle: Klucel (hydroxypropylcellulose) (HPC)) is 273 % of control. The T/C is 328 % of control (dose: 18.0 mg/kg/injection, schedule: Q01DX001 (ip), vehicle: Klucel (hydroxypropylcellulose) (HPC)) and 280 % of control (dose: 26.0 mg/kg/injection, schedule: Q01DX001 (ip), vehicle: Klucel (hydroxypropylcellulose) (HPC)).
In the case of `CNC(=O)Nc1cc2ccccc2o1`, the T/C was 101 % of control (dose: 100.0 mg/kg/injection, schedule: Q04DX003 (ip), vehicle: saline with Tween-80); 92 % of control (dose: 200.0 mg/kg/injection, schedule: Q04DX003 (ip), vehicle: saline with Tween-80); 92 % of control (dose: 400.0 mg/kg/injection, schedule: Q04DX003 (ip), vehicle: saline with Tween-80).
Take `O=C(CCN1CCCCC1)c1cc(Cl)ccc1Cl`: the T/C (dose: 12.5 mg/kg/injection, schedule: Q01DX009 (ip), vehicle: saline) was 93 % of control; the T/C (dose: 25.0 mg/kg/injection, schedule: Q01DX009 (ip), vehicle: saline) was 97 % of control and 98 % of control; the T/C (dose: 25.0 mg/kg/injection, schedule: Q04DX002 (ip), vehicle: saline) was 103 % of control; the T/C (dose: 50.0 mg/kg/injection, schedule: Q01DX009 (ip), vehicle: saline) is 93 % of control; the T/C (dose: 50.0 mg/kg/injection, schedule: Q04DX002 (ip), vehicle: saline) is 98 % of control; the T/C under setting [3] was 91 % of control. Further, under “dose: 100.0 mg/kg/injection, schedule: Q04DX002 (ip), vehicle: saline”, the T/C was 100 % of control and 88 % of control.
Regarding `CC(=O)[C@H]1CC[C@H]2[C@@H]3CCC4=CC(=O)C=C[C@]4(C)[C@H]3C(=O)C[C@]12C`, the T/C was 98 % of control (dose: 25.0 mg/kg/injection, schedule: Q01DX015 (sc), vehicle: steriod suspending solution); 100 % of control (dose: 50.0 mg/kg/injection, schedule: Q01DX015 (sc), vehicle: steriod suspending solution); 97 % of control (dose: 100.0 mg/kg/injection, schedule: Q01DX009 (sc), vehicle: steriod suspending solution); 93 % of control (dose: 100.0 mg/kg/injection, schedule: Q01DX015 (sc), vehicle: steriod suspending solution); 98 % of control (dose: 100.0 mg/kg/injection, schedule: Q04DX003 (ip), vehicle: steriod suspending solution); 97 % of control (dose: 200.0 mg/kg/injection, schedule: Q01DX009 (sc), vehicle: steriod suspending solution). The T/C was 104 % of control and 107 % of control (dose: 200.0 mg/kg/injection, schedule: Q01DX015 (sc), vehicle: steriod suspending solution); 101 % of control (dose: 200.0 mg/kg/injection, schedule: Q04DX003 (ip), vehicle: steriod suspending solution); 100 % of control (dose: 400.0 mg/kg/injection, schedule: Q01DX009 (sc), vehicle: steriod suspending solution); 104 % of control (dose: 400.0 mg/kg/injection, schedule: Q01DX015 (sc), vehicle: steriod suspending solution); 112 % of control (dose: 400.0 mg/kg/injection, schedule: Q04DX003 (ip), vehicle: steriod suspending solution); 104 % of control (dose: 800.0 mg/kg/injection, schedule: Q01DX015 (sc), vehicle: steriod suspending solution).
Regarding `O=NN(CCCl)C(=O)NC1CCC(NC(=O)N(CCCl)N=O)CC1` (stereo not given), the T/C (dose: 44.0 mg/kg/injection, schedule: Q01DX001 (ip), vehicle: other) is 162 % of control and 286 % of control; the T/C (dose: 63.0 mg/kg/injection, schedule: Q01DX001 (ip), vehicle: carboxymethylcellulose (CMC)) is 247 % of control; the T/C (dose: 67.0 mg/kg/injection, schedule: Q01DX001 (ip), vehicle: other) was 168 % of control and 328 % of control; the T/C (dose: 82.0 mg/kg/injection, schedule: Q01DX001 (ip), vehicle: carboxymethylcellulose (CMC)) is 267 % of control; the T/C (dose: 100.0 mg/kg/injection, schedule: Q01DX001 (ip), vehicle: other) was 305 % of control and 314 % of control; the T/C (dose: 125.0 mg/kg/injection, schedule: Q01DX001 (ip), vehicle: carboxymethylcellulose (CMC)) was 310 % of control. Besides, the T/C (dose: 127.0 mg/kg/injection, schedule: Q01DX001 (ip), vehicle: carboxymethylcellulose (CMC)) was 342 % of control; the T/C (dose: 150.0 mg/kg/injection, schedule: Q01DX001 (ip), vehicle: other) is 268 % of control and 180 % of control; the T/C (dose: 187.0 mg/kg/injection, schedule: Q01DX001 (ip), vehicle: carboxymethylcellulose (CMC)) is 290 % of control; the T/C (dose: 225.0 mg/kg/injection, schedule: Q01DX001 (ip), vehicle: other) was 285 % of control and 178 % of control; the T/C (dose: 255.0 mg/kg/injection, schedule: Q01DX001 (ip), vehicle: carboxymethylcellulose (CMC)) was 344 % of control; the T/C (dose: 280.0 mg/kg/injection, schedule: Q01DX001 (ip), vehicle: carboxymethylcellulose (CMC)) was 275 % of control. Besides, the T/C was 306 % of control (dose: 337.0 mg/kg/injection, schedule: Q01DX001 (ip), vehicle: other) and 181 % of control (dose: 510.0 mg/kg/injection, schedule: Q01DX001 (ip), vehicle: carboxymethylcellulose (CMC)).
Turning to `O=S1(=O)C2C=CCC1C(O)CC2` (stereo not given), the T/C is 101 % of control under setting [3]; 99 % of control (dose: 200.0 mg/kg/injection, schedule: Q01DX009 (ip), vehicle: saline); 101 % of control (dose: 400.0 mg/kg/injection, schedule: Q01DX009 (ip), vehicle: saline).
Take `O=C(OC(c1ccccc1)c1ccccc1)c1ccc([N+](=O)[O-])cc1`: the T/C by setting is: (dose: 100.0 mg/kg/injection, schedule: Q01DX001 (ip), vehicle: carboxymethylcellulose (CMC)) 98 % of control; (dose: 200.0 mg/kg/injection, schedule: Q01DX001 (ip), vehicle: carboxymethylcellulose (CMC)) 104 % of control; (dose: 400.0 mg/kg/injection, schedule: Q01DX001 (ip), vehicle: carboxymethylcellulose (CMC)) 96 % of control.
